# Test results from patent US20230119894A1, “THERAPEUTIC OR PROPHYLACTIC METHOD FOR DIABETES USING COMBINATION MEDICINE” (Japan Tobacco Inc., priority 2019, published 2023).
# Experiments:
# [1] = tested on: glucose-loaded SD rats; assay: OGTT (Oral Glucose Tolerance Test), Test Example 3; format: in vivo, rat; details: male SD rats; 3 mg/kg oral, 16 hours before glucose load; compared to vehicle, FIG. 2
# Experimental: Vehicle (0.5% methylcellulose solution), or Compound 1, Compound A, or Compound B (3 mg/kg each) suspended in a 0.5% methylcellulose solution was orally administered in 5 mL/kg to an about 4-hour-fasted male SD rat (8-week old, Nihon Charles River K.K., 5 cases for each group).
# Statistical analyses were based on Dunnett's multiple group test. The significance level was two-sided 5%.
# [2] = tested on: glucose-loaded SD rats; assay: OGTT (Oral Glucose Tolerance Test), Test Example 2; format: in vivo, rat; details: male SD rats; 1, 3, or 10 mg/kg oral, 16 hours before glucose load; compared to vehicle, FIG. 1
# Experimental: Vehicle (0.5% methylcellulose solution) or Compound 1 (1, 3, or 10 mg/kg) suspended in a 0.5% methylcellulose solution was orally administered in 5 mL/kg to an about 4-hour-fasted male SD rat (8-week old, Nihon Charles River K.K., 6 cases for each group).
# Statistical analyses were based on Steel's multiple test. The significance level was two-sided 5%.
structure (smiles),measurement,setting,value
"C[C@H]1C(=O)NC[C@@H]1C(=O)Nc1cc(-c2cc(F)cc(OC(C)(C)C)c2)n(C(F)(F)F)n1 [Example 1, (3R,4R)—N-(5-(3-(tert-butoxy)-5-fluorophenyl)-1-(trifluoromethyl)-1H-pyrazol-3-yl)-4-methyl-5-oxopyrrolidine-3-carboxamide]","blood glucose level after the glucose load (Δ AUC 0-120 minutes, % of Vehicle)",[1],significantly reduced
same,"blood glucose level after the glucose load (Δ AUC 0-120 minutes, % of Vehicle)",[2],significantly reduced
